US20110059076A1, “HUMAN SERUM ALBUMIN LINKERS AND CONJUGATES THEREOF” (priority 2008, published 2011)
Entries after “also recorded” stand apart in the source; their conditions may differ.

Key:
BT474 breast tumor cells = test: cell cycle analysis by propidium iodide flow cytometry; format: cell-based; conditions: 72 hours treatment
Procedure: After the end of treatment, cells are trypsinized, gently resuspended in hypotonic solution containing propidium iodide and single cells are analyzed by flow cytometry. Cell cycle distribution in G1 and S phases is measured using curve-fitting algorithms designed for cell cycle analysis (FlowJo software cell cycle platform).
After the end of treatment, cells are trypsinized, gently resuspended in hypotonic solution containing propidium iodide and single cells are analyzed by flow cytometry. Cell cycle distribution in G1 and S phases is measured using curve-fitting algorithms designed for cell cycle analysis (FlowJo software cell cycle platform, Tree Star, Inc.). […] In a second experiment, the number of cell colonies formed following treatment with B2B3-1 is studied. […] Media only or media including treatment is replenished every 3 days. After 14 days the number of colonies is counted and compared to untreated cells.

[1] = system: ErbB3 phosphorylation in BT-474-M3 cells; test: HRG-induced ErbB3 phosphorylation ELISA in BT-474-M3; format: cell-based, human; conditions: BT-474-M3, dose titration 24 hours, 5 nM HRG 1β EGF domain 10 minutes
Procedure: (§1) Except as noted, ELISA reagents for total and phospho-ErbB3 ELISAs are purchased from R&D Systems as DUOSET kits. 96-well NUNC MAXISORB plates are coated with 50 μl of an antibody and incubated overnight at room temperature. Next morning, plates are washed 3 times with 1000 μl/well in a BIOTEK plate washer with Dulbecco's phosphate buffered saline without calcium or magnesium (PBS) with added Tween detergent (PBST) (0.05% Tween-20). […] The plates are washed 3 times with 1000 μl/well in the BIOTEK plate washer with PBST. Cells are grown at 37° C. and 5% carbon dioxide, washed with cold PBS, then harvested with mammalian protein extract (MPER) lysis buffer (Pierce, 78505) to which 150 mM NaCl, 5 mM sodium pyrophosphate, 10 uM bpV (phen), 50uM phenylarsine, 1 mM sodium orthovanadate, and protease inhibitor cocktail (Sigma, P2714) is added. 50 μL of cell lysates and standards diluted in 50% Lysis buffer and 1% BSA are used in duplicates for further processing. Samples are incubated for 2hrs at 4° C. on a plate shaker and washed as before. About 50 μl of a detection antibody diluted in 2% BSA, PBST is added and incubated for about 1-2 hrs at room temperature. […] About 50 μL of SUPERSIGNAL ELISA Pico (Thermo Scientific) substrate is added and the plate is read using a FUSION plate reader. […]

[2] = system: AKT phosphorylation in BT-474-M3 cells; test: HRG-induced AKT phosphorylation ELISA in BT-474-M3; format: cell-based, human; conditions: BT-474-M3, dose titration 24 hours, 5 nM HRG 1β EGF domain 10 minutes
[3] = system: ErbB3 phosphorylation in ZR75-30 cells; test: HRG-induced ErbB3 phosphorylation ELISA in ZR75-30; format: cell-based, human; conditions: ZR75-30, dose titration 24 hours, 5 nM HRG 1β EGF domain 10 minutes
Procedure: as §1

[4] = target: T1, ErbB2-associated complexes in BT474 breast cancer cells (Homo sapiens, UniProt P04626+P21860); test: immunoprecipitation-Western blot of ErbB2-associated complexes; format: cell-based; conditions: BT474, dose range 24 hours, heregulin stimulation
T1 construct: endogenous in cells; host or cells: BT474 breast cancer cells
Description: ErbB2-associated complexes are isolated from cell lysates using an anti-ErbB2 antibody followed by Western blot analysis to detect pErbB2 and pErbB3 and the corresponding total protein levels.

[5] = system: Calu-3 (human lung adenocarcinoma) xenograft; test: Calu-3 xenograft model; format: in vivo, mice; conditions: Calu-3, 30 mg/kg every 3 days
Description: (§2) Calu-3 (human lung adenocarcinoma; FIG. 17A), SKOV-3 (human ovarian adenocarcinoma; FIG. 17B), NCI-N87 (human gastric carcinoma; FIG. 17C), ACHN (human kidney adenocarcinoma; FIG. 17D), and MDA-MB-361 (human breast adenocarcinoma; FIG. 17E) xenograft model are shown.

[6] = system: NCI-N87 (human gastric carcinoma) xenograft; test: NCI-N87 xenograft model; format: in vivo, mice; conditions: NCI-N87, 30 mg/kg every 3 days
Description: as §2

[7] = system: ACHN (human kidney adenocarcinoma) xenograft; test: ACHN xenograft model; format: in vivo, mice; conditions: ACHN (4.5×10^4 ErbB2 receptors/cell), 30 mg/kg every 3 days
Description: as §2

[8] = system: wild type ADRr xenografts; test: wild type ADRr breast cancer xenograft model; format: in vivo, nude mice; conditions: 30 mg/kg every 3 days
[9] = system: Ki67 in BT474-M3 breast tumor xenografts; test: Ki67 staining of xenograft tumors; format: in vivo; conditions: 30 mg/kg every 3 days, 4 doses
[10] = system: phosphorylated ErbB3 in BT-474-M3 xenograft tumors; test: pErbB3 Western blot of xenograft tumors; format: in vivo; conditions: 30 mg/kg every 3 days, 4 doses, harvested 24 hours after final dose
Description: Equal quantities of protein are loaded in each lane and total protein levels are controlled by probing for beta tubulin.

[11] = system: control BT-474-M3 breast cancer cell xenografts; test: BT-474-M3 shControl xenografts; format: in vivo, nude mice; conditions: 30 mg/kg B2B3-1 every 3 days or 10 mg/kg trastuzumab every week, i.p.
Procedure: ShRNA technology is applied to knock out the activity of the tumor suppressor gene phosphatase and tensin homolog (PTEN) in BT-474-M3 breast cancer cells. Briefly, cultured BT-474-M3 cells are transfected with shPTEN or shControl RNA by retroviral transfection. Transfected cells with reduced PTEN are selected using FACS and subsequently injected subcutaneously into the right flank of nude mice to establish xenograft tumors. Cells transfected with a control vector are injected into the left flank of the same mouse. […] All injections are done i.p.

BT-474-M3 xenograft = test: combination with trastuzumab in BT-474-M3 xenograft model; format: in vivo, athymic nude mice (nu/nu); conditions: single agent
Procedure: Mice receive a subcutaneous estrogen-releasing implant in the opposite flank (0.72 mg pellet, 60 day, slow-release, Innovative Research of America, Sarasota, Fla.) 24 h prior to the injection of 20×10^6 human BT-474-M3cells in PBS. Dosing is initiated when tumor growth is established (tumor volumes of approximately 400 mm^3). Tumors are measured twice a week using digital calipers. Tumor volume is calculated using the formula: π/6×(W^2×L), where W is the short diameter and L is the long diameter.

ErbB3 = ErbB3 (Homo sapiens, UniProt P04626+P21860); test: inhibition of ligand-induced phosphorylation of ErbB3 (general statement); format: cell-based

## B2B3-1: bispecific scFv antibody fusion: anti-ErbB3 scFv H3 and anti-ErbB2 scFv B1D2 joined by a modified human serum albumin (HSA) linker
BT474 breast tumor cells
  population of cells in G1 phase: increase; also recorded: G1 arrest
  population of cells in S phase: modestly decrease
[1]
  inhibition of HRG induced ErbB3 phosphorylation: inhibits
[2]
  inhibition of HRG induced AKT phosphorylation: inhibits
[3]
  inhibition of HRG induced ErbB3 phosphorylation: inhibits
[4]
  ErbB3 and phospho-ErbB3 precipitated by the anti-ErbB2 antibody: crosslinks ErbB2 to ErbB3
[5]
  tumor size reduction: efficacious
[6]
  tumor size reduction: efficacious
[7]
  tumor size reduction: worked less well
[8]
  xenograft response: no response; also recorded: non-responder
[9]
  Ki67 expression compared to HSA treated tumors: reduced expression pattern; also recorded: reduction
[10]
  pErbB3 in tumors compared to HSA treated tumors: significantly less pErbB3
[11]
  size of tumors formed by control BT-474-M3 cells: promoted a reduction
BT-474-M3 xenograft; B2B3-1 3 mg/kg q3d
  mice with completely regressed tumors: 0 out of 10
BT-474-M3 xenograft; B2B3-1 10 mg/kg q3d
  mice with completely regressed tumors: 0 out of 10
ErbB3
  potency of inhibition of ligand-induced phosphorylation of ErbB3: sub-nanomolar
